From PMC6522510 (Nature Communications, 2019)

Tests used:
Parameters in all cases: species or system AML cell lines (8); Primary HTS, single concentration about 10 uM, Cell Titer Glo viability; log10 luminescence, per cent inhibition relative to cycloheximide control
Conditions in all cases: 72 h, relative to cycloheximide control, log10 luminescence; inhibitor
[1] = tested on: MOLM-13
[2] = tested on: ML-2
[3] = tested on: M07e
[4] = tested on: U937
[5] = tested on: CMS
[6] = tested on: CHRF288-11
[7] = tested on: MV4-11
[8] = tested on: CMK

`CC(=O)N[C@@H](Cc1ccc(OP(=O)(O)O)cc1)C(=O)N[C@H]1CCC(=O)N2CCC[C@@H](C(=O)NC3CCc4ccccc43)N2C1=O` (stereo partly shown) [SJ000580953-1] gave an MOLM-13 %inh [1] of 0.9252%, an ML-2 %inh [2] of 0.02578% and an M07e %inh [3] of -2.209%. The U937 %inh [4] was -1.364%, the CMS %inh [5] was -2.328% and the CHRF288-11 %inh [6] was 3.338%. The MV4-11 %inh [7] was -1.841% and the CMK %inh [8] was 1.012%.

In the case of `O=C1NC(=NCCc2ccc(F)cc2)S/C1=C\c1ccc2ncccc2c1` [SJ000580954-1], the MOLM-13 %inh [1] is reported as 4.197%, the ML-2 %inh [2] is reported as 0.5359% and the M07e %inh [3] is reported as -2.647%. The U937 %inh [4] was 1.346%, the CMS %inh [5] was -3.568% and the CHRF288-11 %inh [6] was -1.783%. For the same molecule, the MV4-11 %inh [7] was -0.3593% and the CMK %inh [8] was 4.249%.

`CC(C)c1[nH]nc2c1N=C(c1ccccc1Cl)c1cc([N+](=O)[O-])ccc1N2` [SJ000580955-1] gave an MOLM-13 %inh [1] of 0.5223%, an ML-2 %inh [2] of -0.2118% and an M07e %inh [3] of 0.02064%. It also gave a U937 %inh [4] of -1.286%, a CMS %inh [5] of -2.316% and a CHRF288-11 %inh [6] of 1.018%. The MV4-11 %inh [7] was 1.567% and the CMK %inh [8] was 2.501%.

For `O=C1NC(=NCCc2cccc(Cl)c2)S/C1=C\c1ccc2ncccc2c1` [SJ000580956-1], the MOLM-13 %inh [1] was 9.124%, the ML-2 %inh [2] was 10.56% and the M07e %inh [3] was 0.9407%. It also gave a U937 %inh [4] of 20%, a CMS %inh [5] of 5.008% and a CHRF288-11 %inh [6] of 2.333%. For the same molecule, the MV4-11 %inh [7] was 2.972% and the CMK %inh [8] was 32.59%.

`C[C@@H](Cn1ncnn1)Nc1ncc2cc(Oc3ccc(F)cc3F)c(=O)n(C)c2n1` [SJ000580957-1] gave an MOLM-13 %inh [1] of 1.122%, an ML-2 %inh [2] of 0.7836% and an M07e %inh [3] of 0.2176%. For the same molecule, the U937 %inh [4] was 0.5561%, the CMS %inh [5] was 0.2461% and the CHRF288-11 %inh [6] was 0.5625%. It also gave an MV4-11 %inh [7] of -1.139% and a CMK %inh [8] of 6.727%.

With `Cn1c(=O)c(Cc2ccccc2F)cc2cnc(NC3CCOCC3)nc21` [SJ000580958-1] the MOLM-13 %inh [1] was 5.832%, the ML-2 %inh [2] was 0.5571% and the M07e %inh [3] was 0.7689%. It also gave a U937 %inh [4] of 8.088%, a CMS %inh [5] of 0.1397% and a CHRF288-11 %inh [6] of 0.1529%. The MV4-11 %inh [7] was 6.415% and the CMK %inh [8] was 5.964%.

`O=C1NC(=Nc2ccccc2)S/C1=C\c1ccc2ncccc2c1` [SJ000580960-1] gave an MOLM-13 %inh [1] of 1.819%, an ML-2 %inh [2] of 0.4587% and an M07e %inh [3] of -2.396%. It also gave a U937 %inh [4] of 2.19%, a CMS %inh [5] of -0.1285% and a CHRF288-11 %inh [6] of -1.26%. It also gave an MV4-11 %inh [7] of 2.663% and a CMK %inh [8] of 5.474%.

Work on `O=c1c(Oc2ccc(F)cc2F)cc2cnc(NC3CCOCC3)nc2n1C1CCS(=O)(=O)CC1` [SJ000580961-1] yielded an MOLM-13 %inh [1] of 0.9477%, an ML-2 %inh [2] of 0.6064% and an M07e %inh [3] of -1.798%. It also gave a U937 %inh [4] of 4.388%, a CMS %inh [5] of -0.4155% and a CHRF288-11 %inh [6] of -4.195%. For the same molecule, the MV4-11 %inh [7] was 0.879% and the CMK %inh [8] was 4.971%.

Work on `O=c1c(Oc2ccc(F)cc2F)cc2cnc(NC3CCOCC3)nc2n1CCCO` [SJ000580962-1] yielded an MOLM-13 %inh [1] of 0.8881%, an ML-2 %inh [2] of 1.08% and an M07e %inh [3] of -0.6973%. The U937 %inh [4] was 2.637%, the CMS %inh [5] was 2.142% and the CHRF288-11 %inh [6] was 3.259%. It also gave an MV4-11 %inh [7] of 3.176% and a CMK %inh [8] of 6.717%.

`Cn1cc(C2=C(c3c4n(c5ccccc35)CCCC4)C(=O)NC2=O)c2ccccc21` [SJ000580963-1] showed an MOLM-13 %inh [1] of 2.901%, an ML-2 %inh [2] of 20.63% and an M07e %inh [3] of 29.09%. The U937 %inh [4] was 27.07%, the CMS %inh [5] was 9.345% and the CHRF288-11 %inh [6] was 3.717%. For the same molecule, the MV4-11 %inh [7] was 8.237% and the CMK %inh [8] was 59.12%.

In the case of `Cn1c(=O)c(Oc2ccc(F)cc2F)cc2cnc(NCCS(C)(=O)=O)nc21` [SJ000580964-1], the MOLM-13 %inh [1] is reported as 0.541%, the ML-2 %inh [2] is reported as -0.4027% and the M07e %inh [3] is reported as -0.966%. It also gave a U937 %inh [4] of 5.046%, a CMS %inh [5] of -1.101% and a CHRF288-11 %inh [6] of -0.5727%. For the same molecule, the MV4-11 %inh [7] was 3.561% and the CMK %inh [8] was 2.942%.
